Results on 1 molecule are retold here after US20240279202A1 (NURIX THERAPEUTICS, INC., priority 2021, published 2024).

The assay concerns the target T1, ITK (Mus musculus, UniProt Q03526).
T1 construct: mice were sacrificed and splenocytes were isolated and used to prepare protein lysates; from tissue; host or cells: mouse splenocytes (spleen) after oral dosing
T1 sequence (Q03526 1-625): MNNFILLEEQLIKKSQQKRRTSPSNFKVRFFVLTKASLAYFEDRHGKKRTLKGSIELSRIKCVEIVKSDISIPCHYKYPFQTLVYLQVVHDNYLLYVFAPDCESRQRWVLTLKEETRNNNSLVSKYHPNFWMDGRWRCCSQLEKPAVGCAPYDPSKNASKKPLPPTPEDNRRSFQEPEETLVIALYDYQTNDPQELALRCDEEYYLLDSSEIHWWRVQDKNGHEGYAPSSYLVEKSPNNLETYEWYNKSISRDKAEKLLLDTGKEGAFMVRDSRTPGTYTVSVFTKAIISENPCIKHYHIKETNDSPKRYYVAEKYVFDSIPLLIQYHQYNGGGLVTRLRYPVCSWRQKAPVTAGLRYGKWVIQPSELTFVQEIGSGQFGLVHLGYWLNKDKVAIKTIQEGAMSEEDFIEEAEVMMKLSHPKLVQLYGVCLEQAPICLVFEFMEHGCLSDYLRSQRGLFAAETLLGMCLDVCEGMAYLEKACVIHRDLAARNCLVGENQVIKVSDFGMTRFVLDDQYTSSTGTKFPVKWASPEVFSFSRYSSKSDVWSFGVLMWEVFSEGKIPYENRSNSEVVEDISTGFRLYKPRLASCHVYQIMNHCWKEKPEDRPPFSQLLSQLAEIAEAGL
The experiment in a line: Mouse PD assay for ITK degradation (Western blot, splenocytes after oral administration). In kind it is in vivo. To be noted: percent ITK remaining in mouse splenocytes relative to vehicle, 90 mpk PO, 6 h. On the procedure:
Compounds 1, 3, 7, and 42 were formulated and administered at 90 mg/kg to mice by oral gavage (PO). Blood was collected at defined time points (after 1, 2, and 6 hours) after compounds administration to determine PK parameters. Concentration increased through 6 hours. Six hours later mice were sacrificed and splenocytes were isolated and used to prepare protein lysates. Total protein levels were determined in the lysates using the BCA assay according to standard methods. Equal amounts of protein were then analyzed by Western blot to determine the level of ITK expression in each sample. ITK band intensities were measured using Alpha View software and the percent of ITK remaining in each test animal was determined relative to the mean of ITK levels in vehicle control samples.
After 6 hours, splenocytes cells were harvested. ITK was evaluated by Western blotting.
Compounds 43, 4, 5, 10, 11, 12, 44, 14, 3, and 13 were administered to mice orally. After 6 hours, splenocytes cells were harvested. ITK was evaluated by Western blotting. Media was removed and cell pellets were lysed in 100 uL lysis buffer (RIPA buffer (Fisher, PI89901), cOmplete Mini EDTA-free protease inhibitor (Sigma 11836170001), Protease Inhibitor Cocktail (Sigma, P2714), Phosphatase Inhibitor Cocktail 2 and 3 (Sigma, P5726 and P0044), Benzonase (Sigma, E1014)). Cells were lysed overnight at −20° C. Following thaw, cells were centrifuged for 10 min at 13000 rpm, then transferred to new tube. Protein levels were determined by BCA Assay performed according to manufacturer's protocol (EMID Millipore, cat. no. 71285-3). Samples were combined with (4×) LDS Sample Buffer and (10×) Reducing Agent and H2O to equally load 20 ug protein per lane of a 26-well NuPAGE 4-12% Bis-Tris protein gel (1.0 mm, Thermo cat. no. NP0326). Samples were separated by running gels at constant 150 V in NuPAGE MES SDS Running Buffer. Following electrophoresis, proteins were transferred to nitrocellulose membranes using an iBlot Gel Transfer Device and iBlot Gel Transfer Stacks (Thermo cat. no. IB21001 and IB301001) and transfer method P3 (20V for 7 min). Membranes were blocked for 1 hr in 5% milk solution (TBS (0.2% Tween-20)). Following blocking, membranes were incubated with primary antibody (1:1000 CST ITK (2F12) #2380) overnight at 4° C. with gentle shaking. Blots were washed 2× in TBS (0.2% Tween-20), 30 min per wash. Following washes, blots were incubated in secondary HRP-conjugated antibody (Promega anti-Mouse IgG (H+L) HRP cat. no. W4021), 1:5000 in 5% milk solution (TBS (0.2% Tween-20)), for 1 hr at room temperature with gentle shaking. Blots were washed 2× in TBS (0.2% Tween-20), 30 min per wash. Blots were incubated with 1:1 mix of ECL reagents 1 & 2 (Amersham ECL Western Blotting Detection Reagent, cat. no. RPN2106) for 2 min at room temperature. Bands were visualized using a Protein Simple imager. Blots were then re-probed with a combination of anti-actin antibody (Sigma Monoclonal Mouse Anti-3-Actin (clone AC-15), cat. no. A5441) and secondary H1RP-conjugated antibody (Promega anti-Mouse IgG (H+L) HRP, cat. no. W4021) and similar steps were taken for incubation, wash, detection and visualization steps as above. The data was analyzed using Alpha View software. The densitometric reading for each sample band was normalized to that of the corresponding actin band per lane. Approximate % ITK remaining per sample was calculated as follows: […]
Once % ITK remaining has been calculated for each sample, groups are averaged together to show an means % ITK normalized to actin and relative to control.
Compounds 16, 17, and 18 were administered to mice orally. After 6 hours or 24 hours, splenocytes cells were harvested. ITK was evaluated by Western blotting. Plasma concentrations were determined by LC/MS/MS. Plasma samples were protein precipitated by addition of 100 μl of acetonitrile containing 50 ng/ml of internal standard. The resulting mixture was vortexed and centrifuged at 4000 RPM for 5 minutes. […]
(In western blotting, separated proteins are transferred to a membrane and probed.)

In the case of `CN(C(=O)CC1CCN(c2ccc(C3CCC(=O)NC3=O)cn2)CC1)c1ccc2cc(-c3n[nH]c4c3C[C@@H]3C(F)(F)[C@]3(C)C4)[nH]c2c1` (stereo partly shown) [Compound 20], the “ITK (%) 90 mpk PO, 6 h” value stood at 66%.
